Data reported in patent publication US11535607B2, “Isoindolines as HDAC inhibitors” (Valo Health, Inc., priority 2018, dated 2022).
Where a name gives a salt, the structure may show the parent alone.

Target: full-length human HDAC11 (Homo sapiens (Human), UniProt Q96DB2)
Assay: Probe binding HDAC11 time resolved fluorescence (TRF) assay
Conditions: Table 2, read-out: HDAC11 IC50 Range
Procedure: The probe binding HDAC11 assay was performed using a time resolved fluorescence (TRF) assay format. Recombinant N-terminal GST tag full-length human HD AC 11 was expressed and purified from baculovirus in Sf9 insect cells (SignalChem, #H93-30G-1000). […] 4 μL of 2× probe and 2× anti-GST Terbium (Cisbio, #61GSTXLB) was added to assay plates followed by 4 μL of 2×HDAC11.
Data from HD AC 11 Assays were reported as percent inhibition (inh) compared with control wells based on the following equation: % inh=1−((FLU−AveLow)/(AveHigh−AveLow)) where FLU=measured time resolved fluorescence. AveLow=average time resolved fluorescence of no enzyme control (n=32). AveHigh=average time resolved fluorescence of DMSO control (n=32). IC50 values were determined by curve fitting of the standard 4 parameter logistic fitting algorithm included in the Activity Base software package: IDBS XE Designer Model205. Data is fitted using the Levenburg Marquardt algorithm.

Chain of full-length human HDAC11 (Q96DB2 whole entry): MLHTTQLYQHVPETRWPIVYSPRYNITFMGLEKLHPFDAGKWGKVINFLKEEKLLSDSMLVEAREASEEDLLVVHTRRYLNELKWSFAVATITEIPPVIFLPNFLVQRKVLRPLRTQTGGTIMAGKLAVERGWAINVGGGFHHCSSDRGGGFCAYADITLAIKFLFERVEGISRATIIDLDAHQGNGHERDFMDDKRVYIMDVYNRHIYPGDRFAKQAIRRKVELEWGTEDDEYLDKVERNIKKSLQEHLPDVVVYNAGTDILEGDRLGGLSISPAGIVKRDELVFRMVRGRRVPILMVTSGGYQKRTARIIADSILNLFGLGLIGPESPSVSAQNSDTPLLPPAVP

SMILES | IC50 [µM]
CC1(C)c2cccc(C(=O)NO)c2CN1c1nc2ccccc2s1 [Compound 22-1, 2-(benzo[d]thiazol-2-yl)-N-hydroxy-1,1-dimethylisoindoline-4-carboxamide] | < 0.5
O=C(NO)c1cccc2c1CN(c1nc3cccc(-c4ccccc4)c3[nH]1)C2 [Compound 35-2, N-hydroxy-2-(7-phenyl-1H-benzo[d]imidazol-2-yl)isoindoline-4-carboxamide] | > 1
CCCc1cnc(N2Cc3cccc(C(=O)NO)c3C2)[nH]1 [Compound 1-3, N-hydroxy-2-(5-propyl-1H-imidazol-2-yl)isoindoline-4-carboxamide] | > 1
CC1(C)c2cccc(C(=O)NO)c2N[C@H]1c1cnc(C(F)(F)F)cn1 [Compound 40-3, (R)-N-hydroxy-3,3-dimethyl-2-(5-(trifluoromethyl)pyrazin-2-yl)indoline-7-carboxamide] | < 0.5
CC1(C)c2cccc(C(=O)NO)c2CN1c1nc2ncc(C(F)(F)F)cc2o1 [Compound 26-2, N-hydroxy-1,1-dimethyl-2-(6-(trifluoromethyl)oxazolo[4,5-b]pyridin-2-yl)isoindoline-4-carboxamide] | < 0.5
O=C(NO)c1cccc2c1CN(c1nc3c(o1)CCC(C(F)(F)F)C3)C2 (stereo not drawn) [Compound 16-1, N-hydroxy-2-(5-(trifluoromethyl)-4,5,6,7-tetrahydrobenzo[d]oxazol-2-yl)isoindoline-4-carboxamide] | < 0.5
O=C(NO)c1cccc2c1CN(c1nc3cnccc3o1)C2 [Compound 6-1, N-hydroxy-2-(oxazolo[4,5-c]pyridin-2-yl)isoindoline-4-carboxamide hydrochloride] | 0.5 to 1
O=C(NO)c1cccc2c1CN(c1nc3cc(C(F)(F)F)ccc3o1)C2=O [Compound 36-2, N-hydroxy-1-oxo-2-(5-(trifluoromethyl)benzo[d]oxazol-2-yl)isoindoline-4-carboxamide] | < 0.5
CC1(C)c2cccc(C(=O)NO)c2CN1c1ccc2nc(C(F)(F)F)ccc2n1 [Compound 24-1, N-hydroxy-1,1-dimethyl-2-(6-(trifluoromethyl)-1,5-naphthyridin-2-yl)isoindoline-4-carboxamide] | < 0.5
O=C(NO)c1cccc2c1CN(c1nc3ccncc3o1)C2 [Compound 5-2, N-hydroxy-2-(oxazolo[5,4-c]pyridin-2-yl)isoindoline-4-carboxamide] | > 1
CC1(C)c2cccc(C(=O)NO)c2CN1c1nc2c(o1)CC(C(F)(F)F)CC2 (stereo not drawn) [Compound 19-2, N-hydroxy-1,1-dimethyl-2-(6-(trifluoromethyl)-4,5,6,7-tetrahydrobenzo[d]oxazol-2-yl)isoindoline-4-carboxamide] | < 0.5
Cc1cnc(N2Cc3cccc(C(=O)NO)c3C2)[nH]1 [Compound 7-5, N-hydroxy-2-(5-methyl-1H-imidazol-2-yl)isoindoline-4-carboxamide] | > 1
CC1(C)c2cccc(C(=O)NO)c2CN1c1nc2c(o1)CCC(C(F)(F)F)C2 (stereo not drawn) [Compound 19-1, N-hydroxy-1,1-dimethyl-2-[5-(trifluoromethyl)-4,5,6,7-tetrahydro-1,3-benzoxazol-2-yl]-2,3-dihydro-1H-isoindole-4-carboxamide] | < 0.5
O=C(NO)c1cccc2c1CN(c1nc3cccnc3[nH]1)C2 [Compound 4-1, N-hydroxy-2-(3H-imidazo[4,5-b]pyridin-2-yl)isoindoline-4-carboxamide] | > 1
CC1(C)c2cccc(C(=O)NO)c2CN1c1nc2cnccc2o1 [Compound 21-1, N-hydroxy-1,1-dimethyl-2-(oxazolo[4,5-c]pyridin-2-yl)isoindoline-4-carboxamide] | < 0.5
O=C(NO)c1cccc2c1CN(c1ccc3c(c1)NCCO3)C2 [Compound 9-2, 2-(3,4-dihydro-2H-benzo[b][1,4]oxazin-6-yl)-N-hydroxyisoindoline-4-carboxamide] | > 1
O=C(NO)c1cccc2[nH]c(-c3ccc(C(F)(F)F)cc3)cc12 [Compound 37-2, N-hydroxy-2-(4-(trifluoromethyl)phenyl)-1H-indole-4-carboxamide] | 0.5 to 1
CC1(C)c2cccc(C(=O)NO)c2CN1C(=O)c1cccc(C(F)(F)F)c1 [Compound 28-2, N-hydroxy-1,1-dimethyl-2-(3-(trifluoromethyl)benzoyl)isoindoline-4-carboxamide] | > 1
O=C(NO)c1cccc2c1CN(c1nc3cccnc3o1)C2 [Compound 6-2, N-hydroxy-2-(oxazolo[5,4-b]pyridin-2-yl)isoindoline-4-carboxamide] | > 1
CC1(C)c2cccc(C(=O)NO)c2CN1C(=O)Nc1ccnc(C(F)(F)F)c1 [Compound 30-3, N4-hydroxy-1,1-dimethyl-N2-(2-(trifluoromethyl)pyridin-4-yl)isoindoline-2,4-dicarboxamide] | < 0.5
O=C(NO)c1cccc2c1CN(c1nc3c([nH]1)CNCC3)C2 [Compound 13-1, N-hydroxy-2-(4,5,6,7-tetrahydro-3H-imidazo[4,5-c]pyridin-2-yl)isoindoline-4-carboxamide] | > 1
O=C(NO)c1cccc2c1CN(c1nc3c([nH]1)CC(C(F)(F)F)CC3)C2 (stereo not drawn) [Compound 1-1, N-hydroxy-2-(5-(trifluoromethyl)-4,5,6,7-tetrahydro-1H-benzo[d]imidazol-2-yl)isoindoline-4-carboxamide] | < 0.5
CC1(C)c2cccc(C(=O)NO)c2CN1c1ccc(C(F)(F)F)c(C#N)n1 [Compound 27-1, 2-(6-cyano-5-(trifluoromethyl)pyridin-2-yl)-N-hydroxy-1,1-dimethylisoindoline-4-carboxamide] | < 0.5
O=C(NO)c1cccc2[nH]c(-c3cnc(C(F)(F)F)cn3)cc12 [Compound 37-4, N-hydroxy-2-(5-(trifluoromethyl)pyrazin-2-yl)-1H-indole-4-carboxamide] | < 0.5
CC1(C)c2cccc(C(=O)NO)c2CN1C(=O)Nc1cc(C(F)(F)F)ccn1 [Compound 30-5, N4-hydroxy-1,1-dimethyl-N2-(4-(trifluoromethyl)pyridin-2-yl)isoindoline-2,4-dicarboxamide] | < 0.5
CC1(C)c2cccc(C(=O)NO)c2N[C@@H]1c1ccc(C(F)(F)F)cc1 [Compound 40-6, (R)-N-hydroxy-3,3-dimethyl-2-(4-(trifluoromethyl)phenyl)indoline-7-carboxamide] | > 1
CC(=O)N1CCc2nc(N3Cc4cccc(C(=O)NO)c4C3)[nH]c2C1 [Compound 14-1, 2-(5-acetyl-4,5,6,7-tetrahydro-3H-imidazo[4,5-c]pyridin-2-yl)-N-hydroxyisoindoline-4-carboxamide hydrochloride] | > 1
O=C(NO)c1cccc2c1NC(c1ccc(C(F)(F)F)cc1)C2 (stereo not drawn) [Compound 38-1, N-hydroxy-2-(4-(trifluoromethyl)phenyl)indoline-7-carboxamide] | 0.5 to 1
O=C(NO)c1cccc2c1CN(c1nc3ncccc3o1)C2 [Compound 5-1, N-hydroxy-2-(oxazolo[4,5-b]pyridin-2-yl)isoindoline-4-carboxamide hydrochloride] | < 0.5
CC1(C)c2cccc(C(=O)NO)c2CN1c1nc2ccc(C(F)(F)F)cc2o1 [Compound 18-3, N-hydroxy-1,1-dimethyl-2-(6-(trifluoromethyl)benzo[d]oxazol-2-yl)isoindoline-4-carboxamide] | < 0.5
